# Measured values: patent US6852744B2, “Pyrrolidine derivatives and their use as chymase inhibitor” (Dainippon Pharmaceutical Co., Ltd., priority 2000, dated 2005)
# Molecular target: T1, monkey chymase (Macaca fascicularis, UniProt P56435)
# T1 construct: chymase was extracted from homogenized monkey cheek pouch and stomach; from tissue; host or cells: monkey cheek pouch and stomach
# T1 sequence (P56435 22-247): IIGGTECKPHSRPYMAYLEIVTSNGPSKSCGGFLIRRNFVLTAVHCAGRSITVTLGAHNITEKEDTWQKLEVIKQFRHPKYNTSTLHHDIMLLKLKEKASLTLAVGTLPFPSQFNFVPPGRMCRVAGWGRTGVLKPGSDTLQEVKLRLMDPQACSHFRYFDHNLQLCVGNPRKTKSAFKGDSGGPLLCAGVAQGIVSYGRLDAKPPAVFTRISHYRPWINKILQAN
# Assay: Monkey chymase inhibitory activity (in vitro, angiotensin I substrate)
# Assay type: biochemical
# Settings: Monkey Chymase Inhibition (IC50:nM), chymase purified from monkey cheek pouch and stomach; substrate angiotensin I; 37° C.
# Protocol: The inhibitory activities of the compounds on monkey chymase and human chymase were tested in vitro. The test compounds are as shown by Compound Nos. in Tables 13 and 14.
# Preparation of Monkey Chymase
# Chymase was purified from monkey cheek pouch and stomach in the following manner.
# Briefly, chymase was extracted from homogenized monkey cheek pouch and stomach with 0.01 mol/1000 ml sodium phosphate buffer, pH 7.4, containing 2 mol/1000 ml KCl and 0.1% Nonidet P-40 (Amresco Inc.). The solution containing chymase was applied to a heparin actigel column, and the chymase-rich fractions were collected.
# Measurement of Chymase Inhibitory Activity (In Vitro Assay)
# Briefly, the purified monkey or human chymase was diluted to an appropriate concentration with 0.01 mol/1000 ml sodium phosphate buffer, pH 7.4, containing 2 mol/1000 ml KCl and 0.1% Nonidet P-40 and used as enzyme solution. Angiotensin I (Peptide Institute Inc.) was diluted with water to 5 mg/ml and used as substrate solution. Test compounds were serially diluted with 10% DMSO. […] After pre-incubation of the mixture at 37° C., 20 μl of the substrate solution was added to the enzyme-test compound mixture and the new mixture was incubated at 37° C. Fifty μl of 30% trichloroacetic acid solution was finally added to stop the enzymatic reaction.
# The amount of L-His-L-Leu was measured as angiotensin II produced by the enzymatic reaction. Briefly, 10 μl of the reaction mixture and 10 μl of 1% orthophthalaldehyde solution dissolved in methanol were mixed with 100 μl of 2 mol/1000 ml NaOH and kept at room temperature. The reaction was then stopped by adding 10 μl of 6 mol/1000 ml HCl.
row,SMILES,IC50 [nM]
1,CC(C)[C@H](NC(=O)c1ccncc1)C(=O)N1CCC[C@H]1C(=O)NC(Cc1csc2ccccc12)C(=O)C(F)(F)F (some centres unmarked) [I-A-66],49

# Same assay, conditions: chymase purified from monkey cheek pouch and stomach; substrate angiotensin I; 37° C.; read-out: Monkey Chymase Inhibition (IC50:nM)
row,SMILES,IC50 [nM]
1,Cc1noc(C)c1C(=O)N[C@H](C(=O)N1CCC[C@H]1C(=O)NC(Cc1csc2ccccc12)C(=O)C(F)(F)F)C1CCCCC1 (some centres unmarked) [I-A-6],33
2,Cc1onc(-c2ccccc2)c1C(=O)N[C@H](C(=O)N1CCC[C@H]1C(=O)NC(Cc1csc2ccccc12)C(=O)C(F)(F)F)C(C)C (some centres unmarked) [I-A-7],34
3,Cc1noc(C)c1C(=O)N[C@@H](Cc1ccccc1)C(=O)N1CCC[C@H]1C(=O)NC(Cc1csc2ccccc12)C(=O)C(F)(F)F (some centres unmarked) [I-A-8],48
4,Cc1noc(C)c1C(=O)N[C@H](C(=O)N1CCC[C@H]1C(=O)NC(Cc1coc2ccccc12)C(=O)C(F)(F)F)C(C)C (some centres unmarked) [I-A-9],61
5,Cc1noc(C)c1C(=O)N[C@H](C(=O)N1CCC[C@H]1C(=O)NC(Cc1c[nH]c2ccccc12)C(=O)C(F)(F)F)C(C)C (some centres unmarked) [I-A-10],77
6,CC[C@H](NC(=O)c1c(C)noc1C)C(=O)N1CCC[C@H]1C(=O)NC(Cc1ccc2ccccc2c1)C(=O)C(F)(F)F (some centres unmarked) [I-A-13],50
7,Cc1noc(C)c1C(=O)N[C@@H](Cc1ccccc1)C(=O)N1CCC[C@H]1C(=O)NC(Cc1ccccc1)C(=O)C(F)(F)F (some centres unmarked) [I-A-14],59
8,Cc1noc(C)c1C(=O)N[C@H](C(=O)N1CCC[C@H]1C(=O)NC(Cc1cccc2ccccc12)C(=O)C(F)(F)F)C(C)C (some centres unmarked) [I-A-15],82
9,Cc1noc(C)c1C(=O)N[C@H](C(=O)N1CCC[C@H]1C(=O)NC(CC1CCCCC1)C(=O)C(F)(F)F)C(C)C (some centres unmarked) [I-A-16],110
10,Cc1noc(C)c1C(=O)N[C@H](C(=O)N1CCC[C@H]1C(=O)NC(Cc1cccs1)C(=O)C(F)(F)F)C(C)C (some centres unmarked) [I-A-17],140
11,Cc1noc(C)c1C(=O)N[C@H](C(=O)N1CCC[C@H]1C(=O)NC(Cc1ccc2c(c1)CCC2)C(=O)C(F)(F)F)C(C)C (some centres unmarked) [I-A-18],220
12,CC[C@H](NC(=O)c1snnc1C)C(=O)N1CCC[C@H]1C(=O)NC(Cc1csc2ccccc12)C(=O)C(F)(F)F (some centres unmarked) [I-A-21],19
13,Cc1nnsc1C(=O)N[C@H](C(=O)N1CCC[C@H]1C(=O)NC(Cc1ccc2ccccc2c1)C(=O)C(F)(F)F)C(C)C (some centres unmarked) [I-A-22],37
14,CC[C@H](NC(=O)c1snnc1C)C(=O)N1CCC[C@H]1C(=O)NC(Cc1ccc2ccccc2c1)C(=O)C(F)(F)F (some centres unmarked) [I-A-23],50
15,Cc1nnsc1C(=O)N[C@H](C(=O)N1CCC[C@H]1C(=O)NC(Cc1ccc2c(c1)CCC2)C(=O)C(F)(F)F)C(C)C (some centres unmarked) [I-A-24],150
16,Cc1noc(C)c1C(=O)N[C@H](C(=O)N1CCC[C@H]1C(=O)NC(Cc1ccccc1)C(=O)C(F)(F)F)C(C)C (some centres unmarked) [I-A-26],44
17,Cc1noc(C)c1C(=O)N[C@H](C(=O)N1CCC[C@H]1C(=O)NC(Cc1ccccc1F)C(=O)C(F)(F)F)C(C)C (some centres unmarked) [I-A-27],51
18,Cc1noc(C)c1C(=O)N[C@H](C(=O)N1CCC[C@H]1C(=O)NC(Cc1ccc(O)cc1)C(=O)C(F)(F)F)C(C)C (some centres unmarked) [I-A-28],54
19,Cc1noc(C)c1C(=O)N[C@H](C(=O)N1CCC[C@H]1C(=O)NC(Cc1ccc(Cl)cc1)C(=O)C(F)(F)F)C(C)C (some centres unmarked) [I-A-29],57
20,Cc1noc(C)c1C(=O)N[C@H](C(=O)N1CCC[C@H]1C(=O)NC(Cc1ccc(F)cc1)C(=O)C(F)(F)F)C(C)C (some centres unmarked) [I-A-30],65
21,Cc1ccccc1CC(NC(=O)[C@@H]1CCCN1C(=O)[C@@H](NC(=O)c1c(C)noc1C)C(C)C)C(=O)C(F)(F)F (some centres unmarked) [I-A-33],73
22,Cc1ccc(CC(NC(=O)[C@@H]2CCCN2C(=O)[C@@H](NC(=O)c2c(C)noc2C)C(C)C)C(=O)C(F)(F)F)cc1 (some centres unmarked) [I-A-35],80
23,COc1ccc(CC(NC(=O)[C@@H]2CCCN2C(=O)[C@@H](NC(=O)c2c(C)noc2C)C(C)C)C(=O)C(F)(F)F)cc1 (some centres unmarked) [I-A-37],95
24,Cc1noc(C)c1C(=O)N[C@H](C(=O)N1CCC[C@H]1C(=O)NC(Cc1cccc(Cl)c1)C(=O)C(F)(F)F)C(C)C (some centres unmarked) [I-A-38],110
25,Cc1noc(C)c1C(=O)N[C@H](C(=O)N1CCC[C@H]1C(=O)NC(Cc1ccccc1Cl)C(=O)C(F)(F)F)C(C)C (some centres unmarked) [I-A-39],120
26,Cc1cccc(CC(NC(=O)[C@@H]2CCCN2C(=O)[C@@H](NC(=O)c2c(C)noc2C)C(C)C)C(=O)C(F)(F)F)c1 (some centres unmarked) [I-A-40],120

row,SMILES,IC50 [nM]
1,Cc1noc(C)c1C(=O)N[C@H](C(=O)N1CCC[C@H]1C(=O)NC(Cc1ccc(I)cc1)C(=O)C(F)(F)F)C(C)C (some centres unmarked) [I-A-42],130
2,Cc1noc(C)c1C(=O)N[C@H](C(=O)N1CCC[C@H]1C(=O)NC(Cc1ccc(Cl)cc1)C(=O)C(F)(F)F)C(C)C (some centres unmarked) [I-A-43],140
3,Cc1noc(C)c1C(=O)N[C@H](C(=O)N1CCC[C@H]1C(=O)NC(Cc1ccccc1C(F)(F)F)C(=O)C(F)(F)F)C(C)C (some centres unmarked) [I-A-46],170
4,CC(C)[C@H](NC(=O)c1ccc2snnc2c1)C(=O)N1CCC[C@H]1C(=O)NC(Cc1csc2ccccc12)C(=O)C(F)(F)F (some centres unmarked) [I-A-55],63
5,CC(C)[C@H](NC(=O)c1ccnc2ccccc12)C(=O)N1CCC[C@H]1C(=O)NC(Cc1csc2ccccc12)C(=O)C(F)(F)F (some centres unmarked) [I-A-56],47
6,CC(C)[C@H](NC(=O)c1ccc2c(c1)OCO2)C(=O)N1CCC[C@H]1C(=O)NC(Cc1csc2ccccc12)C(=O)C(F)(F)F (some centres unmarked) [I-A-57],100
7,CC(C)[C@H](NC(=O)c1noc2ccccc12)C(=O)N1CCC[C@H]1C(=O)NC(Cc1csc2ccccc12)C(=O)C(F)(F)F (some centres unmarked) [I-A-58],210
8,CC(C)[C@H](NC(=O)c1onc2ccccc12)C(=O)N1CCC[C@H]1C(=O)NC(Cc1csc2ccccc12)C(=O)C(F)(F)F (some centres unmarked) [I-A-59],250
9,Cc1nc2c(C(=O)N[C@H](C(=O)N3CCC[C@H]3C(=O)NC(Cc3csc4ccccc34)C(=O)C(F)(F)F)C(C)C)cccc2o1 (some centres unmarked) [I-A-60],430
10,Cc1nc(C)c(C(=O)N[C@H](C(=O)N2CCC[C@H]2C(=O)NC(Cc2csc3ccccc23)C(=O)C(F)(F)F)C(C)C)s1 (some centres unmarked) [I-A-65],37
11,CC(C)[C@H](NC(=O)c1ccccn1)C(=O)N1CCC[C@H]1C(=O)NC(Cc1csc2ccccc12)C(=O)C(F)(F)F (some centres unmarked) [I-A-67],94
12,CC(C)[C@H](NC(=O)c1snnc1-c1ccccc1)C(=O)N1CCC[C@H]1C(=O)NC(Cc1csc2ccccc12)C(=O)C(F)(F)F (some centres unmarked) [I-A-68],27
13,Cc1nc(C)c(C(=O)N[C@H](C(=O)N2CCC[C@H]2C(=O)NC(Cc2csc3ccccc23)C(=O)C(F)(F)F)C(C)C)o1 (some centres unmarked) [I-A-69],98
14,CC(C)[C@H](NC(=O)c1cccs1)C(=O)N1CCC[C@H]1C(=O)NC(Cc1csc2ccccc12)C(=O)C(F)(F)F (some centres unmarked) [I-A-70],140
15,CC(C)[C@H](NC(=O)c1onc2cccnc12)C(=O)N1CCC[C@H]1C(=O)NC(Cc1csc2ccccc12)C(=O)C(F)(F)F (some centres unmarked) [I-A-71],140
16,CC(C)[C@H](NC(=O)c1ccsc1)C(=O)N1CCC[C@H]1C(=O)NC(Cc1csc2ccccc12)C(=O)C(F)(F)F (some centres unmarked) [I-A-72],160
17,CC(C)[C@H](NC(=O)c1cccnc1Oc1ccccc1)C(=O)N1CCC[C@H]1C(=O)NC(Cc1csc2ccccc12)C(=O)C(F)(F)F (some centres unmarked) [I-A-73],300
18,CC(C)[C@H](NC(=O)c1ccco1)C(=O)N1CCC[C@H]1C(=O)NC(Cc1csc2ccccc12)C(=O)C(F)(F)F (some centres unmarked) [I-A-74],350
19,CC(C)[C@H](NC(=O)c1nsc(Cl)c1Cl)C(=O)N1CCC[C@H]1C(=O)NC(Cc1csc2ccccc12)C(=O)C(F)(F)F (some centres unmarked) [I-A-75],380
20,CC(C)[C@H](NC(=O)CN1CCN(CC(=O)O)C1=O)C(=O)N1CCC[C@H]1C(=O)NC(Cc1ccc2ccccc2c1)C(=O)C(F)(F)F (some centres unmarked) [I-A-83],61
21,CC(C)[C@H](NC(=O)CN1CCN(CC(=O)OC(C)(C)C)C1=O)C(=O)N1CCC[C@H]1C(=O)NC(Cc1ccc2ccccc2c1)C(=O)C(F)(F)F (some centres unmarked) [I-A-84],190
22,CC(C)[C@H](NC(=O)CN1CCN(CC(=O)O)C1=O)C(=O)N1CCC[C@H]1C(=O)NC(Cc1cc2ccccc2s1)C(=O)C(F)(F)F (some centres unmarked) [I-A-85],75
23,CC(C)[C@H](NC(=O)CN1CCN(CC(=O)OC(C)(C)C)C1=O)C(=O)N1CCC[C@H]1C(=O)NC(Cc1cc2ccccc2s1)C(=O)C(F)(F)F (some centres unmarked) [I-A-86],210
24,CC(C)[C@H](NC(=O)CN1CCN(Cc2ccccc2)C1=O)C(=O)N1CCC[C@H]1C(=O)NC(Cc1cc2ccccc2s1)C(=O)C(F)(F)F (some centres unmarked) [I-A-87],250
25,CC(C)[C@H](NC(=O)Cn1ccc(=O)n(CC(=O)O)c1=O)C(=O)N1CCC[C@H]1C(=O)NC(Cc1ccccc1)C(=O)C(F)(F)F (some centres unmarked) [I-A-88],68
26,CC(C)[C@H](NC(=O)Cn1ccc(=O)n(CC(=O)O)c1=O)C(=O)N1CCC[C@H]1C(=O)NC(Cc1ccc(Cl)cc1)C(=O)C(F)(F)F (some centres unmarked) [I-A-89],150
